Results taken from PMC12155096 (International Journal of Molecular Sciences, 2025).

What follows are compounds tested against human CYP2D6 (Homo sapiens, UniProt P10635) (assay: not given). Conditions: not given.
Chain of human CYP2D6 (P10635 whole entry): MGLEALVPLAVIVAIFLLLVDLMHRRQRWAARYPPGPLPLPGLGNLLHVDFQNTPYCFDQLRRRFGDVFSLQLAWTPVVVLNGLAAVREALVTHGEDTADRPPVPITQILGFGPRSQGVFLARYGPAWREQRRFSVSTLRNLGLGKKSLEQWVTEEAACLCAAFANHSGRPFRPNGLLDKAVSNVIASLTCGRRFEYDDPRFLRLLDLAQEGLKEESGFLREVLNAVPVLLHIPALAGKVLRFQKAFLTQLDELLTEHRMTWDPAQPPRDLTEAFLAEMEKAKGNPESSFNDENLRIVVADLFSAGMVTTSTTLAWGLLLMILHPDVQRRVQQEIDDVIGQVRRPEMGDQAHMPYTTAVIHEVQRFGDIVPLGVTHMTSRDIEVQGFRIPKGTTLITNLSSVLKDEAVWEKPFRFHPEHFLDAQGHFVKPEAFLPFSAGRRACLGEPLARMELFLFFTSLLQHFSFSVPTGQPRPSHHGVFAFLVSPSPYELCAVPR

Structure (SMILES) | CYP2D6 Efficacy (in parenthesis) | IC50 | AC50 | CYP2D6 IC50 (half-maximal inhibitory concentration)
Oc1cc2ccccc2c2ccccc12 [9-Phenanthrol] | 2.53 ± 0.29 (-109 ± 3) % | 2.53 µM |  | 
O=C1NCN(c2ccccc2)C12CCN(CCCOc1ccc(F)cc1)CC2 [AMI-193] |  | 0.6 µM | 0.6 µM | 
COC(=O)c1cc(Cl)ccc1NS(=O)(=O)C(F)(F)F [Amidoflumet] |  |  |  | Inactive
COP(=S)(NC(C)C)Oc1ccc(C)cc1[N+](=O)[O-] (centres unmarked) [Amiprofos-methyl] | 41.71 ± 5.32 (-58 ± 14) % | 41.7 µM |  | 
COc1ccc(OC)c(N=Nc2c(O)ccc3ccccc23)c1 [C.I. Solvent Red 80] |  | 13.6 µM |  | 
Cl.Clc1ccc(Cn2c(CN3CCCC3)nc3ccccc32)cc1 [Clemizole hydrochloride] | 1.56 ± 0.18 (-101 ± 1) % | 1.56 µM |  | 
Cl.Clc1ccc(C(OCCN2CCCCC2)c2ccccc2)cc1 (centres unmarked) [Cloperastine hydrochloride] |  | 0.17 µM |  | 
CC(=O)O.CC(C)c1ccc2c(c1)CC[C@H]1[C@](C)(CN)CCC[C@]21C [Dehydroabietylamine acetate] | 1.51 ± 0.43 (-90 ± 10) % | 1.51 µM |  | 

What follows are compounds tested against Photinus pyralis (firefly) luciferase (Photinus pyralis, UniProt P08659) (assay: biochemical). Conditions: not given.
Format: biochemical

Chain of Photinus pyralis (firefly) luciferase (P08659 whole entry): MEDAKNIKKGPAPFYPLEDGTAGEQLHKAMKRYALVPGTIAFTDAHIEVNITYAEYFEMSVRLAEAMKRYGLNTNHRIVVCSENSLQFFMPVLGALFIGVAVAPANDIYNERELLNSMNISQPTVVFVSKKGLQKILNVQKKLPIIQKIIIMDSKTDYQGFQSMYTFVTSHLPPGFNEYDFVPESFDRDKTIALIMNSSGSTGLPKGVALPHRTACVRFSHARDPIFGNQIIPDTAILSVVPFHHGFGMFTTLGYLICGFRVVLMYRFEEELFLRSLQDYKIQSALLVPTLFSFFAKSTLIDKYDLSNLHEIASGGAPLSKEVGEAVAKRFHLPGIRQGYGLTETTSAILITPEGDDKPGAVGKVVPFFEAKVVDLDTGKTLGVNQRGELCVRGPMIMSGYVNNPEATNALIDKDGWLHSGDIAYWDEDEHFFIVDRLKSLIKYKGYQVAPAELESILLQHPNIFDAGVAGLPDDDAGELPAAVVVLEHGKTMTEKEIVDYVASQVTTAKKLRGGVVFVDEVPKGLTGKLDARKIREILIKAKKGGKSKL

Structure (SMILES) | Luciferase Efficacy (in parenthesis) | Luciferase IC50 | Luciferase IC50 (half-maximal inhibitory concentration)
Oc1cc2ccccc2c2ccccc12 [9-Phenanthrol] | 71.29 ± 8.19 (-61 ± 21) % |  | 
O=C1NCN(c2ccccc2)C12CCN(CCCOc1ccc(F)cc1)CC2 [AMI-193] |  | Inactive | 
COC(=O)c1cc(Cl)ccc1NS(=O)(=O)C(F)(F)F [Amidoflumet] |  |  | Inactive
COP(=S)(NC(C)C)Oc1ccc(C)cc1[N+](=O)[O-] (centres unmarked) [Amiprofos-methyl] |  |  | Inactive
Cl.Clc1ccc(Cn2c(CN3CCCC3)nc3ccccc32)cc1 [Clemizole hydrochloride] |  |  | Inactive
Cl.Clc1ccc(C(OCCN2CCCCC2)c2ccccc2)cc1 (centres unmarked) [Cloperastine hydrochloride] |  | Inactive | 
CC(=O)O.CC(C)c1ccc2c(c1)CC[C@H]1[C@](C)(CN)CCC[C@]21C [Dehydroabietylamine acetate] |  |  | Inactive

Same assay, conditions: read-out: Luciferase IC50 (half-maximal inhibitory concentration)

Structure (SMILES) | IC50
Oc1cc2ccccc2c2ccccc12 [9-Phenanthrol] | 71.3 µM
COc1ccc(OC)c(N=Nc2c(O)ccc3ccccc23)c1 [C.I. Solvent Red 80] | 6.97 µM

Each compound was assayed against human CYP2C19 (Homo sapiens, UniProt P33261) (assay: not given). Conditions: not given.
Chain of human CYP2C19 (P33261 whole entry): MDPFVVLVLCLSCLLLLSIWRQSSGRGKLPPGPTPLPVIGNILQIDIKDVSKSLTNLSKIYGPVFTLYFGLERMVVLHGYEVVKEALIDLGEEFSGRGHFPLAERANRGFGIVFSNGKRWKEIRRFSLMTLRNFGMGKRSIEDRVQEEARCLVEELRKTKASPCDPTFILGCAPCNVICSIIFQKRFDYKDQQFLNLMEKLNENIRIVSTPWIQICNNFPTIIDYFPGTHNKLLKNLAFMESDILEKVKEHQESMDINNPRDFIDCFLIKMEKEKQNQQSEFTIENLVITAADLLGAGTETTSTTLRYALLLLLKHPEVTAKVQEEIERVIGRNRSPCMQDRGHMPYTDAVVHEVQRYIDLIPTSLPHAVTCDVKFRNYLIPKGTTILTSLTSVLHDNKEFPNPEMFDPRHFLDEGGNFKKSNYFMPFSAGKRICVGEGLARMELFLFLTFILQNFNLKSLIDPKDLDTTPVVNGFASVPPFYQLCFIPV

Structure (SMILES) | CYP2C19 Efficacy (in parenthesis) | IC50 | CYP2C19 AC50 (half-maximal activity concentration) | CYP2C19 IC50 | CYP2C19 IC50 (half-maximal inhibitory concentration)
Oc1cc2ccccc2c2ccccc12 [9-Phenanthrol] | 1.22 ± 0.17 (-132 ± 15) % | 1.22 µM |  |  | 
O=C1NCN(c2ccccc2)C12CCN(CCCOc1ccc(F)cc1)CC2 [AMI-193] |  |  | Inconclusive inhibitor | Inactive | 
COC(=O)c1cc(Cl)ccc1NS(=O)(=O)C(F)(F)F [Amidoflumet] |  |  |  |  | Inactive
COP(=S)(NC(C)C)Oc1ccc(C)cc1[N+](=O)[O-] (centres unmarked) [Amiprofos-methyl] | 0.41 ± 0.19 (-132 ± 27) % | 0.41 µM |  |  | 
COc1ccc(OC)c(N=Nc2c(O)ccc3ccccc23)c1 [C.I. Solvent Red 80] |  | 8 µM |  |  | 
Cl.Clc1ccc(Cn2c(CN3CCCC3)nc3ccccc32)cc1 [Clemizole hydrochloride] | 0.68 ± 0.17 (-140 ± 7) % | 0.68 µM |  |  | 
Cl.Clc1ccc(C(OCCN2CCCCC2)c2ccccc2)cc1 (centres unmarked) [Cloperastine hydrochloride] |  | 18.5 µM |  |  | 
CC(=O)O.CC(C)c1ccc2c(c1)CC[C@H]1[C@](C)(CN)CCC[C@]21C [Dehydroabietylamine acetate] | 14.98 ± 6.91 (-121 ± 11) % | 15 µM |  |  | 

Each compound was assayed against human CYP2C9 (Homo sapiens, UniProt P11712) (assay: not given). Conditions: not given.
Chain of human CYP2C9 (P11712 whole entry): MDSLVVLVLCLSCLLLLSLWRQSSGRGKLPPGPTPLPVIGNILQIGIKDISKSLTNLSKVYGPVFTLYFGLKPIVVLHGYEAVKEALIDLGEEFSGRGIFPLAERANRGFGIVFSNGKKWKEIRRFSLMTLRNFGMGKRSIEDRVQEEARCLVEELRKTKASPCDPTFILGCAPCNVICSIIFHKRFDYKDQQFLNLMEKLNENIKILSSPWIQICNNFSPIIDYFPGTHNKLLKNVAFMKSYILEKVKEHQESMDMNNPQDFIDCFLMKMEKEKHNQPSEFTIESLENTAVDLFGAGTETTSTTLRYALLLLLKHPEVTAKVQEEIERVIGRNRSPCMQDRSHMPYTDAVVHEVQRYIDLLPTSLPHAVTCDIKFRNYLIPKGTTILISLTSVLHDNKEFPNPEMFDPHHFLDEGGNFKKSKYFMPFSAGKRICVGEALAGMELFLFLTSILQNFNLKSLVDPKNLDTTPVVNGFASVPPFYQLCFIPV

Structure (SMILES) | CYP2C9 Efficacy (in parenthesis) | IC50 | CYP2C9 IC50 | CYP2C9 IC50 (half-maximal inhibitory concentration)
Oc1cc2ccccc2c2ccccc12 [9-Phenanthrol] | 4.41 ± 1.07 (-106 ± 2) % | 4.41 µM |  | 
O=C1NCN(c2ccccc2)C12CCN(CCCOc1ccc(F)cc1)CC2 [AMI-193] |  |  | Inactive | 
COC(=O)c1cc(Cl)ccc1NS(=O)(=O)C(F)(F)F [Amidoflumet] |  |  |  | Inactive
COP(=S)(NC(C)C)Oc1ccc(C)cc1[N+](=O)[O-] (centres unmarked) [Amiprofos-methyl] | 2.74 ± 0.38 (-109 ± 3) % | 2.74 µM |  | 
COc1ccc(OC)c(N=Nc2c(O)ccc3ccccc23)c1 [C.I. Solvent Red 80] |  | 6.33 µM |  | 
Cl.Clc1ccc(Cn2c(CN3CCCC3)nc3ccccc32)cc1 [Clemizole hydrochloride] | 16.12 ± 1.09 (-82 ± 4) % | 16.1 µM |  | 
Cl.Clc1ccc(C(OCCN2CCCCC2)c2ccccc2)cc1 (centres unmarked) [Cloperastine hydrochloride] |  |  | Inactive | 
CC(=O)O.CC(C)c1ccc2c(c1)CC[C@H]1[C@](C)(CN)CCC[C@]21C [Dehydroabietylamine acetate] | 42.19 ± 26.12 (-70 ± 20) % | 42.2 µM |  | 

Each compound was assayed against T1, human CYP1A2 (Homo sapiens, UniProt P05177) (assay: not given). Conditions: not given.
T1 sequence (P05177 1-516): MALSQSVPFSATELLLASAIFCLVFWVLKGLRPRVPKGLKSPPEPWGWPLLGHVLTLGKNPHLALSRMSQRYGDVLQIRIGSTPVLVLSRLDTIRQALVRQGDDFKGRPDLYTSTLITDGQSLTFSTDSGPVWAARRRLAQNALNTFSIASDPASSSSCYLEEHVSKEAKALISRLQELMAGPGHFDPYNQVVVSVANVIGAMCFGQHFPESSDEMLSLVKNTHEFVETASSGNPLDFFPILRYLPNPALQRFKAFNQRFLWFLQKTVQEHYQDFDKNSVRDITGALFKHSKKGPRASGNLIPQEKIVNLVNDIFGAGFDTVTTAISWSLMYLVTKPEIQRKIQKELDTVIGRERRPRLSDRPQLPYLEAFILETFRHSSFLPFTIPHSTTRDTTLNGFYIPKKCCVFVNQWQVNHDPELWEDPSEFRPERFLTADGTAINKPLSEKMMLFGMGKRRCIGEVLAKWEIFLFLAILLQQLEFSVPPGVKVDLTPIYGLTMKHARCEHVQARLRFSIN

Structure (SMILES) | CYP1A2 Efficacy (in parenthesis) | IC50 | CYP1A2 IC50
Oc1cc2ccccc2c2ccccc12 [9-Phenanthrol] | 0.05 ± 0.01 (-99 ± 4) % | 0.05 µM | 
O=C1NCN(c2ccccc2)C12CCN(CCCOc1ccc(F)cc1)CC2 [AMI-193] |  |  | Inactive
COC(=O)c1cc(Cl)ccc1NS(=O)(=O)C(F)(F)F [Amidoflumet] |  | 0.91 µM | 
COP(=S)(NC(C)C)Oc1ccc(C)cc1[N+](=O)[O-] (centres unmarked) [Amiprofos-methyl] | 12.35 ± 5.02 (-104 ± 9) % | 12.3 µM | 
COc1ccc(OC)c(N=Nc2c(O)ccc3ccccc23)c1 [C.I. Solvent Red 80] |  | 0.75 µM | 
Cl.Clc1ccc(Cn2c(CN3CCCC3)nc3ccccc32)cc1 [Clemizole hydrochloride] | 17.64 ± 0.46 (-72 ± 13) % | 17.6 µM | 
Cl.Clc1ccc(C(OCCN2CCCCC2)c2ccccc2)cc1 (centres unmarked) [Cloperastine hydrochloride] |  | 22.5 µM | 
CC(=O)O.CC(C)c1ccc2c(c1)CC[C@H]1[C@](C)(CN)CCC[C@]21C [Dehydroabietylamine acetate] | 38.64 ± 5.32 (-53 ± 5) % | 38.6 µM | 

These compounds were tested against CYP3A4 (Homo sapiens, UniProt P08684) (assay: not given). Conditions: not given.
Chain of CYP3A4 (P08684 whole entry): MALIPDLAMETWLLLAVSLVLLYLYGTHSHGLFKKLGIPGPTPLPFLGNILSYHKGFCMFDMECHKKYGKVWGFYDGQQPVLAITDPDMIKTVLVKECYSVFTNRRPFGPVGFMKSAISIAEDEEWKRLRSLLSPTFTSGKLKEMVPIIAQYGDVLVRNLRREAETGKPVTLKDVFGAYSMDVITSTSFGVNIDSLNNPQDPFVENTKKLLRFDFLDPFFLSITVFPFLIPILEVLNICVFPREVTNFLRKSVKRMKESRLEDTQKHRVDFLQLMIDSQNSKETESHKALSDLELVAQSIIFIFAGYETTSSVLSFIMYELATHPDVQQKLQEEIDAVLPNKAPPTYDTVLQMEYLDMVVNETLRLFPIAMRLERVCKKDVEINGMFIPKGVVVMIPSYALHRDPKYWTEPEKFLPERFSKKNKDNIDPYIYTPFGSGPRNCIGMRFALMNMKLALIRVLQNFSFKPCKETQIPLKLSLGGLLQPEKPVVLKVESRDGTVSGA

Structure (SMILES) | CYP3A4 Efficacy (in parenthesis) | AC50 | CYP3A4 IC50 | CYP3A4 IC50 (half-maximal inhibitory concentration) | IC50
Oc1cc2ccccc2c2ccccc12 [9-Phenanthrol] | 6.1 ± 0.4 (-91 ± 4) % |  |  |  | 
O=C1NCN(c2ccccc2)C12CCN(CCCOc1ccc(F)cc1)CC2 [AMI-193] |  | 4.72 µM | 4.72 ± 0.31 (133 ± 10) µM |  | 
COC(=O)c1cc(Cl)ccc1NS(=O)(=O)C(F)(F)F [Amidoflumet] |  |  |  | Inactive | 
COP(=S)(NC(C)C)Oc1ccc(C)cc1[N+](=O)[O-] (centres unmarked) [Amiprofos-methyl] | 0.55 ± 0.08 (-87 ± 1) % |  |  |  | 0.55 µM
COc1ccc(OC)c(N=Nc2c(O)ccc3ccccc23)c1 [C.I. Solvent Red 80] |  |  |  |  | 2.79 µM
Cl.Clc1ccc(Cn2c(CN3CCCC3)nc3ccccc32)cc1 [Clemizole hydrochloride] | 6.24 ± 1.17 (-72 ± 1) % |  |  |  | 6.24 µM
Cl.Clc1ccc(C(OCCN2CCCCC2)c2ccccc2)cc1 (centres unmarked) [Cloperastine hydrochloride] |  |  |  |  | 4.43 µM
CC(=O)O.CC(C)c1ccc2c(c1)CC[C@H]1[C@](C)(CN)CCC[C@]21C [Dehydroabietylamine acetate] | 0.41 ± 0.13 (-82 ± 3) % |  |  |  | 0.41 µM
